According to article PMC10328743, “5-Nitro-3-(2-(4-phenylthiazol-2-yl)hydrazineylidene)indolin-2-one derivatives inhibit HIV-1 replication by a multitarget mechanism of action” (Frontiers in Cellular and Infection Microbiology, 2023):
Read-outs that look alike come from different tables or passages of the source.

Tests used:
[1] = Viability of infected MT4 cells (cytotoxicity); type: cell-based; settings: human, MT4 cells infected with HIV-1; infected MT4 cells viability; three independent experiments, average ± standard deviation
Procedure: (§1) HIV-1 replication was carried out in MT4 cells as previously reported ([Corona et al., 2016a]) using a molecular clone derived from the pNL4-3 ([Thierry et al., 2015]). A total of 120 ng of p24^gag antigen per 10^6 cells, corresponding to a multiplicity of infection (m.o.i.) of 0.3, was used for infection. […] Flow cytometry analysis was performed on a FACSCalibur flow cytometer (BD Biosciences, San Jose, CA, USA), and the results were analyzed using the […] software.

MT4 cells [2] = assay: Viability of infected MT4 cells (cytotoxicity); type: cell-based; settings: no toxicity up to the highest concentration tested
Procedure: as §1

HIV-1 [3] = assay: HIV-1 replication inhibition in MT4 cells; type: cell-based; settings: three independent experiments, average ± standard deviation, read-out: HIV-1 EC50
Procedure: as §1

[4] = target: T1, HIV-1 IN-IN subunit exchange (Human immunodeficiency virus type 1 group M subtype B, UniProt P12497); assay: HTRF-based IN subunit exchange assay; type: binding
T1 construct: Preparation of recombinant full-length IN and LEDGF proteins; made in house; host or cells: E. coli BL21(DE3)
Procedure: (§2) Proteins were expressed in E. coli BL21(DE3). Briefly, His-IN was purified by loading the precipitate of cell lysate onto a Ni-Sepharose column and eluting with a […] imidazole gradient (0–500 mM) in a HEPES buffer (50 mM, pH 7.5) containing NaCl (1 M), CHAPS (7.5 mM), and β-mercaptoethanol (2 mM). FLAG-IN was purified by loading the precipitate of cell lysate onto a phenyl-sepharose and ammonium sulfate gradient (0–800 mM) in a HEPES (pH 7.5, 50 mM) buffer containing NaCl (200 mM), CHAPS (7.5 mM), and β-mercaptoethanol (2 mM). Peak fractions were pooled, loaded onto a heparin column, and eluted with an increasing NaCl gradient (200 mM to 1 M) in a HEPES (pH 7.5, 50 mM) buffer containing CHAPS (7.5 mm) and β-mercaptoethanol (2 mM). Fractions containing integrase were pooled and stored in glycerol (10%) at −80°C.
His and FLAG-tagged INs were mixed in Tris (pH 7.4, 25 mm) buffer containing NaCl (150 mm), MgCl2 (2 mM), Nonidet P-40 (0.1%), and BSA (1 mg/ml). Test compounds were then added to the mixture, and incubation was carried out for 2.5 h at room temperature.

[5] = target: T2, HIV-1 IN (LEDGF-independent) (Human immunodeficiency virus type 1 group M subtype B, UniProt P12497); assay: biochemical; settings: strand-transfer activity with omission of LEDGF/p75; read-out: IC50 IN LEDGF-independent integration
T2 construct: Preparation of recombinant full-length IN and LEDGF proteins; made in house; host or cells: E. coli BL21(DE3)
Procedure: as §2
(§3) Briefly, IN (50 nM) was preincubated with increasing concentrations of compounds for 1 h at room temperature in a reaction buffer containing HEPES (20 mM, pH 7.5), DTT (1 mM), glycerol (1%), MgCl2 (20 mM), Brij-35 (0.05%), and bovine serum albumin (BSA) (0.1 mg/ml).

[6] = target: T3, HIV-1 IN (LEDGF/p75-dependent) (Human immunodeficiency virus type 1 group M subtype B, UniProt P12497); assay: biochemical; type: biochemical; settings: strand-transfer activity in the presence of LEDGF/p75; read-out: IC50 IN LEDGF-dependent integration
T3 construct: Preparation of recombinant full-length IN and LEDGF proteins; made in house; host or cells: E. coli BL21(DE3)
Procedure: as §2, §3

[7] = target: T4, HIV-1 RT-associated RNase H (Human immunodeficiency virus type 1 group M subtype B, UniProt P04585); assay: HIV-1 DNA polymerase-independent RNase H activity determination; type: biochemical; settings: wt HIV-1 RT; three independent experiments, average ± standard deviation; read-out: RNase H IC50
T4 construct: The 1:1 ratio between the p66/p51 subunits was also verified; His tag (implied only by Ni-NTA IMAC purification); made in house; host or cells: Escherichia coli M15
Procedure: (§4) Escherichia coli strain M15 containing the p6HRT-prot vector (provided by Stuart Le Grice laboratory (NCI Frederick)) was grown to an optical density at 600 nm of 0.7 and induced with 1.7 mM of isopropyl β-D-1-thiogalactopyranoside (IPTG) for 4 h. Protein purification was carried out with a BioLogic LP system (Bio-Rad, Hercules, CA, USA) using a combination of immobilized metal affinity chromatography (IMAC) and ion exchange chromatography. Cell pellets were resuspended in lysis buffer (50 mM of sodium phosphate buffer, pH 7.8, containing 0.5 mg/mL of lysozyme), incubated on ice for 20 min, and, after the addition of NaCl to a final concentration of 0.3 M, were sonicated and centrifuged at 30,000 ×g for 1 h. The supernatant was loaded onto a Ni^2+-NTA-Sepharose column pre-equilibrated with loading buffer (50 mM of sodium phosphate buffer, pH 7.8, containing 0.3 M of NaCl, 10% glycerol, and 10 mM of imidazole) and washed thoroughly with wash buffer (50 mM of sodium phosphate buffer, pH 6.0, containing 0.3 M of NaCl, 10% glycerol, and 80 mM of imidazole). RT was eluted with an imidazole gradient in the wash buffer (0–0.5 M). Fractions were collected, and protein purity was checked by sodium dodecyl sulfate–polyacrylamide gel electrophoresis (SDS-PAGE) and found to be higher than 90%. The 1:1 ratio between the p66/p51 subunits was also verified. Enzyme-containing fractions were pooled and diluted 1:1 with 50 mM of sodium phosphate buffer, pH 7.0, containing 10% glycerol, and then loaded into a Hi-trap heparin HP GE (Healthcare LifeScience) pre-equilibrated with 10 column volumes of loading buffer (50 mM of sodium phosphate buffer, pH 7.0, containing 10% glycerol, and 150 mM of NaCl). The column was then washed with loading buffer, and the RT was eluted with Elute Buffer 2 (50 mM of sodium phosphate, pH 7.0, 10% glycerol, 1 M of NaCl). Fractions were collected, and the protein was dialyzed and stored in a buffer containing 50 mM of Tris-HCl, pH 7.0, 25 mM of NaCl, 1 mM of EDTA, and 50% glycerol. Catalytic activities and protein concentrations were determined. Enzyme-containing fractions were pooled, and aliquots were stored at −80°C.
HIV RT-associated RNase H activity was measured as described ([Corona et al., 2016b]) in a 100-µl reaction volume containing 50 mM of Tris-HCl buffer, pH 7.8, 6 mM of MgCl2, 1 mM of dithiothreitol (DTT), 80 mM of KCl, 0.25 µM of hybrid RNA/DNA 5′-[…]-Fluorescin-3′ (high-performance liquid chromatography (HPLC), dry, QC: Mass Check) (available from Metabion) 5′-Dabcyl-[…]-3′ (HPLC, dry, QC: Mass Check), increasing concentrations of inhibitors, whose dilution were made in water, and different amounts of enzymes according to a linear range of the dose–response curve. The reaction mixture was incubated for 1 h at 37°C and stopped by the addition of EDTA, and products were measured with a multilabel counter plate reader Victor 3 equipped with filters for 490/528 nm.

HIV-1 IN-LEDGF binding = target: T5, HIV-1 IN-LEDGF binding (Human immunodeficiency virus type 1 group M subtype B, UniProt P12497); assay: biochemical
T5 construct: Preparation of recombinant full-length IN and LEDGF proteins; made in house; host or cells: E. coli BL21(DE3)
Procedure: as §2
Briefly, His-IN was preincubated with different concentrations of a compound in a buffer containing NaCl (150 mm), MgCl2 (2 mM), Nonidet P-40 (0.1%), BSA (1 mg/ml), and Tris (pH 7.4, 25 mm) for 30 min at room temperature. Then, FLAG-LEDGF was added to the reaction mixture, and a mixture of anti-His6-XL665 and anti-FLAG-EuCryptate antibodies was added.

HIV-1 RT-associated RDDP = target: T6, HIV-1 RT-associated RDDP (Human immunodeficiency virus type 1 group M subtype B, UniProt P04585); assay: HIV-1 RNA-dependent DNA polymerase activity determination; type: biochemical
T6 construct: The 1:1 ratio between the p66/p51 subunits was also verified; His tag (implied only by Ni-NTA IMAC purification); made in house; host or cells: Escherichia coli M15
Procedure: as §4
(§5) RDDP activity was measured as previously reported in 25-µl volume containing 60 mM of Tris‐HCl buffer, pH 8.1, 8 mM of MgCl2, 60 mM of KCl, 13 mM of DTT, 2.5 µM of poly(A)-oligo(dT), 100 µM of dTTP, increasing concentrations of inhibitors, whose dilution were made in water, and different amounts of enzymes according to a linear range of the dose–response curve. The reaction mixture was incubated for 30 min at 37°C and then stopped by the addition of EDTA. Reaction products were detected by pico green addition and measured with a multilabel counter plate reader Victor 3, equipped with filters for 502/523 nm.

MT4 cells [8] = settings: cited from earlier work
HIV-1 RT Y188L (RDDP) = assay: RDDP activity of Y188L HIV-1 RT; type: biochemical
Procedure: (§6) K103N, Y181C, and Y188L mutations were introduced into the p6HRT-prot vector using the QuikChange protocol (Agilent Technologies, Santa Clara, CA, USA). Enzymes were expressed and purified as the wt-HIV-1 RT.
as §5

HIV-1 RT K103N (RDDP) = assay: RDDP activity of K103N HIV-1 RT; type: biochemical
Procedure: as §6, §5

HIV-1 RT Y181C (RDDP) = assay: RDDP activity of Y181C HIV-1 RT; type: biochemical
Procedure: as §6, §5

HIV-1 [9] = settings: read-out: HIV-1 EC50; viral replication in MT4 cells; ref Corona et al. (2014a); cited from earlier work
[10] = Human immunodeficiency virus 1, MT4, viral replication in MT4 cells
[11] = wt HIV-1 RT, three independent experiments, average ± standard deviation, read-out: RDDP IC50

Row | SMILES | CC50 [1] [µM] | EC50 (HIV-1 [3]; [10]) [µM] | IC50 [7] [µM] | IC50 (HIV-1 RT-associated RDDP; [11]) [µM] | other results
1 | O=C1Nc2ccc([N+](=O)[O-])cc2/C1=N/Nc1nc(-c2ccc(Cl)cc2)cs1 [1a] | > 100 | < 20 | 4.6 ± 1.4 | 10 ± 0.5 | toxicity against MT4 cells (MT4 cells [2]): > 100 µM; EC50 (HIV-1 [3]; viral replication in MT4 cells): 25 ± 2.1 µM; IC50 [4]: 22.8 ± 2.6 µM; IC50 [5]: 100 µM; IC50 [6]: 22.4 ± 4.65 µM; IC50 (HIV-1 IN-LEDGF binding): > 100 µM
2 | O=C1Nc2ccc([N+](=O)[O-])cc2/C1=N/Nc1nc(-c2ccc(Br)cc2)cs1 [3a] | > 100 | < 20 | 4.3 ± 0.7 | 8.5 ± 0.5 | toxicity against MT4 cells (MT4 cells [2]): > 100 µM; EC50 (HIV-1 [3]; viral replication in MT4 cells): 32 ± 3.2 µM; IC50 [4]: 18.5 ± 3.5 µM; IC50 [5]: 73.5 ± 13.5 µM; IC50 [6]: 15.5 ± 3 µM; IC50 (HIV-1 IN-LEDGF binding): > 100 µM
3 | Cn1c(-c2ccc(Cl)c(Cl)c2)cs/c1=N\N=C1/C(=O)Nc2ccc([N+](=O)[O-])cc21 [9c] | 5 ± 1.3 | > 5 | 1.9 ± 0.7 | 15.1 ± 0.5 | –
4 | Cc1ccc(-c2csc(NN=C3C(=O)Nc4ccc(Cl)cc43)n2)cc1 [10b] | > 100 | > 100 | 10 ± 1.4 | 18 ± 0.7 | –
5 | Cc1ccc(-c2cs/c(=N\N=C3/C(=O)Nc4ccc([N+](=O)[O-])cc43)n2C)cc1 [10c] | 10 ± 2.7 | > 10 | 6.8 ± 1.4 | 16.9 ± 2.3 | –
6 | COc1ccc(-c2csc(N/N=C3\C(=O)Nc4ccc([N+](=O)[O-])cc43)n2)cc1 [11a] | > 100 | > 100 | 8.5 ± 0.6 | 14.5 ± 0.5 | –
7 | COc1ccc(-c2csc(N/N=C3\C(=O)Nc4ccc(Cl)cc43)n2)cc1 [11b] | 70 ± 9 | > 70 | 7 ± 1 | 16.2 ± 2.8 | –
8 | COc1ccc(-c2cs/c(=N\N=C3/C(=O)Nc4ccc([N+](=O)[O-])cc43)n2C)cc1 [11c] | 2 ± 0.4 | > 2 | 4 ± 1.4 | 11.2 ± 2.2 | –
9 | O=C1Nc2ccc([N+](=O)[O-])cc2/C1=N/Nc1nc(-c2ccccc2)cs1 [12a] | > 100 | > 100 | 6 ± 1 | – | IC50 (HIV-1 RT-associated RDDP): 13 ± 2 µM
10 | O=C1Nc2ccc(Cl)cc2/C1=N/Nc1nc(-c2ccccc2)cs1 [12b] | 70 ± 5 | > 70 | 5.4 ± 0.6 | 9.4 ± 1.1 | –
11 | Cn1c(-c2ccccc2)cs/c1=N\N=C1/C(=O)Nc2ccc([N+](=O)[O-])cc21 [12c] | 10 ± 1.2 | > 10 | 3.6 ± 0.8 | 8.1 ± 0.1 | –
12 | O=C1Nc2ccc(Cl)cc2[C@@](C#CC2CC2)(C(F)(F)F)O1 [EFV, efavirenz] | – | – | – | – | CC50 (MT4 cells [8]; read-out: MT4 CC50, MT4 cells viability, ref Corona et al. (2014a)): > 0.31 µM; increase in IC50 vs wt RT, RDDP activity (HIV-1 RT Y188L (RDDP)): 14 fold; increase in IC50 vs wt RT, RDDP activity (HIV-1 RT K103N (RDDP)): 9.1 fold; increase in IC50 vs wt RT, RDDP activity (HIV-1 RT Y181C (RDDP)): 3.5 fold
13 | CCOC(=O)C(=O)CC(=O)/C=C/c1cccn1Cc1ccccc1Cl [RDS1759] | – | – | – | – | CC50 (MT4 cells [8]): > 50 µM; EC50 (HIV-1 [9]): 2.1 µM
14 | N#Cc1ccc(-c2csc(NN=C3C(=O)Nc4ccccc43)n2)cc1 [RMNC6, reference compound] | – | – | – | – | IC50 [4]: > 100 µM; IC50 [5]: > 100 µM; IC50 [6]: > 100 µM; IC50 (HIV-1 IN-LEDGF binding): > 100 µM
